# Measured values reported in patent publication US20210186982A1, “METHODS AND COMPOSITIONS FOR TREATING MELANOMA” (UNIVERSITE NICE SOPHIA ANTIPOLIS, priority 2017, published 2021).
# Assays:
# A375DR = assay: MTS conversion assay, melanoma cell proliferation; assay type: cell-based; conditions: Homo sapiens, MET, BRAFV600E/CDKN2A*/?, resistance vemurafenib/ERKi, 48 h MTS, read-out: b-AP15 IC50
# Method: (§1) Cell proliferation was measured by a MTS conversion assay using the CellTiter 96® Aqueous Non-Radioactive Cell Proliferation kit (Promega, Madison Wis.) according to the manufacturer instructions. Cells were seeded in 96-well plates (5×10^4 cells/well) and treated with different reagents for the indicated times and incubated at 37° C. with MTS reagent. The optical density of each sample at 490 nm was determined with a Multiskan FC plate reader (Thermo Fisher Scientific, Waltham, Mass. USA).
# Mel1617 = assay: MTS conversion assay, melanoma cell proliferation; assay type: cell-based; conditions: Homo sapiens, MET, BRAF*/p53*, resistance none, 48 h MTS, read-out: b-AP15 IC50
# Method: as §1
# WM164 = assay: MTS conversion assay, melanoma cell proliferation; assay type: cell-based; conditions: Homo sapiens, MET, BRAFV600E/CDKN2A*, resistance none, 48 h MTS, read-out: b-AP15 IC50
# Method: as §1
# WM266-4 = assay: MTS conversion assay, melanoma cell proliferation; assay type: cell-based; conditions: Homo sapiens, WM 266-4, MET, BRAFV600D/PTEN*, resistance none, 48 h MTS, read-out: b-AP15 IC50
# Method: as §1
# m238R = assay: MTS conversion assay, melanoma cell proliferation; assay type: cell-based; conditions: Homo sapiens, MET, BRAFV600E/PTEN*/RTK*, resistance vemurafenib, 48 h MTS, read-out: b-AP15 IC50
# Method: as §1
# m238 = assay: MTS conversion assay, melanoma cell proliferation; assay type: cell-based; conditions: Homo sapiens, MET, BRAFV600E/PTEN*, resistance none, 48 h MTS, read-out: b-AP15 IC50
# Method: as §1
# Pt#1 patient cells = assay: MTS conversion assay, patient melanoma cell proliferation; assay type: cell-based; conditions: Homo sapiens; Patient cells Pt#1; MET; BRAF*; resistance none; 48 h MTS; read-out: b-AP15 IC50
# Method: as §1
# 16 melanoma cell lines = assay: MTS proliferation assay, collection of melanoma cell lines; assay type: cell-based; conditions: Homo sapiens, range over 16 melanoma cell lines, read-out: IC50 of b-AP15 for 16 melanoma cell lines
# Method: as §1
# USP14 = target: T1, USP14 (Homo sapiens, UniProt P54578); assay: DUB trap assay (HA-Ub-VS probe, anti-USP14 immunoblot); assay type: cell-based
# T1 construct: endogenous in cells; host or cells: A375 (also 1205Lu, 501Mel, SKMel28, 451Lu) melanoma cells; cell lysates
# T1 sequence (P54578 whole entry): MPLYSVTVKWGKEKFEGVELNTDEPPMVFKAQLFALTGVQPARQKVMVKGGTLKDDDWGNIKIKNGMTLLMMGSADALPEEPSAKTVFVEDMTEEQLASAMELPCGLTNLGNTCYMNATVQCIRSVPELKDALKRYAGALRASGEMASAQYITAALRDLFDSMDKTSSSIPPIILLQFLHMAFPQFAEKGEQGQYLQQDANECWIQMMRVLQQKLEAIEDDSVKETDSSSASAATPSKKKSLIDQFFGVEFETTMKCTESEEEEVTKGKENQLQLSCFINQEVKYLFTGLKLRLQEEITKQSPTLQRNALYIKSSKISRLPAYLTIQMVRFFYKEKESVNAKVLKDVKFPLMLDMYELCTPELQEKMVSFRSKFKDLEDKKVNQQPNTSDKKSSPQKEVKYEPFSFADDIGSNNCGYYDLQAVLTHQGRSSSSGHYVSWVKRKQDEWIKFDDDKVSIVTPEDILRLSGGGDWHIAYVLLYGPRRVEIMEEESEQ
# Method: Cells were harvested, washed with PBS and pellets were dried then freezed (−80° C.) and subsequently lysed in ice-cold buffer containing 50 mM Tris (pH 7.4), 5 mM MgCl2, 250 mM sucrose, 1 mM DTT, 2 mM ATP, and 1 mM PMSF and mild sonication. Lysates were cleared by centrifugation, and 20 μg of protein extracts were incubated for 25 min at 37° C. with 2 μM HA-Ub-VS (Boston Biochem, Cambridge, Mass.). After boiling in reducing sample buffer, labelled cell lysates were subjected to immunoblot analysis as described above using the indicated antibodies.
# 12051u cells = assay: Cell cycle / sub-G1 analysis by flow cytometry (PI); assay type: cell-based, human; conditions: 24 h
# Method: (§2) Cell cycle profiles and sub-G1 analysis were performed by flow cytometry analysis of propidium iodide (PI)-stained cells. Briefly, following permeabilization in icecold ethanol 70%, cells were stained with PI 40 μg/ml in PBS supplemented with RNAse A 100 μg/ml before analysis using a BD FACSCanto cytometer.
# A375 cells = assay: as above; assay type: cell-based, human; conditions: 24 h
# Method: as §2
# Me1501 and A375 cells = assay: Colony formation; assay type: cell-based, human; conditions: compared to untreated cells
# Method: (§3) Alternatively, cell growth was assessed by crystal violet staining on cells seeded in 24-well plates for the indicated time. After treatment, cells were fixed in PFA 3% during 20 min, washed with PBS 3 times and stained with crystal violet 0.4% in ethanol 20% for 30 min.
# 4511u and 4511uR cells = assay: Colony formation assay; assay type: cell-based, human
# Method: as §3
# melanoma cells = assay: Cytotoxic effect, rounding of cells; assay type: cell-based, human
# 451Lu-R Luc+ cells = assay: Melanoma xenograft in nude mice, tumor bioluminescence; assay type: in vivo; conditions: 10 mgkg-1 i.p. every 3 days, vs vehicle
# Method: All mouse experiments were carried out in accordance with the Institutional Animal Care and the local ethics committee. For human melanoma xenografts, 5-week-old female athymic (nu/nu) mice (Harlan) were subcutaneously injected with 1×106 451Lu-R BRAF inhibitor resistant melanoma cells engineered to express a luciferase reporter (451Lu-R Luc+ cells) in 100 μl of PBS. After 3 days, mice were injected every 3 days intraperitoneally with vehicle or 10 mgkg-1 b-AP15 in 90/1/9 mix of Labrafil/Tween 80/DMA. At the indicated time, mice were anesthetized and injected intraperitoneally with 50 mgkg-1 D-luciferin (Perkin Elmer) in PBS. Images were acquired using a Photon Imager (Biospace Lab) system and data analysed with the M3Vision software (Biospace Lab). Tumor growth was monitored and quantified using BLI. The total numbers of photons per second per steradian per square centimeter were recorded. For BLI plots, photon flux was calculated for each mouse by using a rectangular region of interest encompassing the thorax of the mouse in a prone position.
# [1] = test system: K48-linked poly-ubiquitinated proteins; assay: Immunoblot analysis of poly-ubiquitinated proteins in A375 cells; assay type: cell-based, human
# Method: (§4) Melanoma cells were harvested as described before 6. Cells were lysed at 4° C. in RIPA buffer (Millipore) supplemented with Pierce™ Protease and Phosphatase Inhibitor Mini Tablets, and briefly sonicated. Cell lysates were cleared at 16,000 xg for 15 min at 4° C. Whole cell lysates were subjected to SDS-PAGE and immunoblot analysis as previously described 6.
# 12051u and A375 cells = assay: Immunoblot analysis of proliferation and apoptosis proteins; assay type: cell-based, human
# Method: as §4
compound,measurement,setting,value
Cc1cc(C(=O)CN2CCCC2)c(C)n1-c1ccc(F)cc1 [b-AP15],IC50,A375DR,1300 nM
same,IC50,Mel1617,1400 nM
same,IC50,WM164,900 nM
same,IC50,WM266-4,500 nM
same,IC50,m238R,200 nM
same,IC50,m238,400 nM
same,IC50,Pt#1 patient cells,3400 nM
same,IC50,16 melanoma cell lines,400 to 2000 nM
same,"USP14 activity in 12051u, 501Mel, SKMe128 and 4511u cells",USP14; 2 μM,efficiently blocked the activity of USP14
same,USP14 activity (USP14-Ub-HA) in A375 cells,USP14; A375 melanoma cells,efficiently blocked the activity of USP14 in a dose-dependent manner
same,sub-G1 cell population with reduced DNA content,12051u cells,19%
same,sub-G1 cell population with reduced DNA content,A375 cells,11%
same,"ability to form colonies, compound treatment",Me1501 and A375 cells,no longer capable of forming colonies
same,melanoma colony formation,4511u and 4511uR cells,suppressed melanoma colony formation
same,time to rounding of melanoma cells,melanoma cells,≤ 12 h
same,"melanoma burden, bioluminescence analysis of tumor growth",451Lu-R Luc+ cells,marked decrease in melanoma burden
same,K48-linked poly-ubiquitinated proteins,[1],induced a rapid accumulation
same,levels of p53 and of the cell cycle inhibitor p21,12051u and A375 cells,increased
same,levels of phosphorylated Rb proteins,12051u and A375 cells,reducing
